In ChEMBL document CHEMBL1151988, “Antineoplastic agents. 571. Total synthesis of bacillistatin 2” (2009):
In brackets after ≈: the same amount, converted by molar mass.

Assays:
P388 = assay: Cytotoxicity against mouse P388 cells; assay type: functional; conditions: read-out: ED50 (the source's name)
DU-145 = assay: Cytotoxicity against human DU145 cells; assay type: functional

| Compound | EC50 (P388) | GI50 (DU-145) |
| --- | --- | --- |
| CC[C@H](C)[C@@H](OC(=O)[C@@H](NC(=O)[C@H](C)OCc1ccccc1)C(C)C)C(=O)N[C@@H](C(=O)O[C@@H](C)C(=O)N[C@H](C(=O)O[C@@H](C(=O)N[C@@H](C(=O)O[C@@H](C)C(=O)N[C@H](C(=O)O[C@H](CC(C)C)C(=O)N[C@@H](C(=O)OC(C)(C)C)C(C)C)C(C)C)C(C)C)[C@@H](C)CC)C(C)C)C(C)C | 2.1 µg/mL (≈ 1.59 µM) | – |
| CC[C@H](C)[C@@H](OC(=O)[C@@H](NC(=O)[C@H](C)O)C(C)C)C(=O)N[C@@H](C(=O)O[C@@H](C)C(=O)N[C@H](C(=O)O[C@@H](C(=O)N[C@@H](C(=O)O[C@@H](C)C(=O)N[C@H](C(=O)O[C@H](CC(C)C)C(=O)N[C@@H](C(=O)OC(C)(C)C)C(C)C)C(C)C)C(C)C)[C@@H](C)CC)C(C)C)C(C)C | 2 µg/mL (≈ 1.63 µM) | – |
| CC[C@H](C)[C@@H](OC(=O)[C@@H](NC(=O)[C@H](C)OC(=O)[C@H](NC(=O)[C@H](OC(=O)[C@@H](NC(=O)[C@@H](C)OCc1ccccc1)C(C)C)[C@@H](C)CC)C(C)C)C(C)C)C(=O)N[C@@H](C(=O)OC(C)(C)C)C(C)C | – | 10.5 µg/mL (≈ 11.3 µM) |
